Where two headings read alike, the source gives them in different places.

From PMC4457528, “Identification of Novel Small Molecule Inhibitors of Oncogenic RET Kinase” (PLoS ONE, 2015) come the findings set out here.

Common to all, as to test: KinomeScan kinase panel, single concentration 10 µM
Holding throughout (format): binding

In assay [1] the target is T1, KinomeScan kinase panel (Homo sapiens, UniProt P12931).
T1 construct: purchased DiscoveRx (KinomeScan)
The following applies: 10 µM, read-out: score (%).

Assay [2] addresses T2, KinomeScan kinase panel (Homo sapiens, UniProt Q9NQU5).
T2 construct: purchased DiscoveRx (KinomeScan)
Particulars: PAK6, 10 µM; read-out: score (%).

Assay [3] deals with T3, KinomeScan kinase panel (Homo sapiens, UniProt Q16816).
T3 construct: purchased DiscoveRx (KinomeScan)
Particulars: PHKG1, 10 µM; read-out: score (%).

For assay [4], the target named is T4, KinomeScan kinase panel (Homo sapiens, UniProt P29322).
T4 construct: purchased DiscoveRx (KinomeScan)
T4 sequence (P29322 28-1005): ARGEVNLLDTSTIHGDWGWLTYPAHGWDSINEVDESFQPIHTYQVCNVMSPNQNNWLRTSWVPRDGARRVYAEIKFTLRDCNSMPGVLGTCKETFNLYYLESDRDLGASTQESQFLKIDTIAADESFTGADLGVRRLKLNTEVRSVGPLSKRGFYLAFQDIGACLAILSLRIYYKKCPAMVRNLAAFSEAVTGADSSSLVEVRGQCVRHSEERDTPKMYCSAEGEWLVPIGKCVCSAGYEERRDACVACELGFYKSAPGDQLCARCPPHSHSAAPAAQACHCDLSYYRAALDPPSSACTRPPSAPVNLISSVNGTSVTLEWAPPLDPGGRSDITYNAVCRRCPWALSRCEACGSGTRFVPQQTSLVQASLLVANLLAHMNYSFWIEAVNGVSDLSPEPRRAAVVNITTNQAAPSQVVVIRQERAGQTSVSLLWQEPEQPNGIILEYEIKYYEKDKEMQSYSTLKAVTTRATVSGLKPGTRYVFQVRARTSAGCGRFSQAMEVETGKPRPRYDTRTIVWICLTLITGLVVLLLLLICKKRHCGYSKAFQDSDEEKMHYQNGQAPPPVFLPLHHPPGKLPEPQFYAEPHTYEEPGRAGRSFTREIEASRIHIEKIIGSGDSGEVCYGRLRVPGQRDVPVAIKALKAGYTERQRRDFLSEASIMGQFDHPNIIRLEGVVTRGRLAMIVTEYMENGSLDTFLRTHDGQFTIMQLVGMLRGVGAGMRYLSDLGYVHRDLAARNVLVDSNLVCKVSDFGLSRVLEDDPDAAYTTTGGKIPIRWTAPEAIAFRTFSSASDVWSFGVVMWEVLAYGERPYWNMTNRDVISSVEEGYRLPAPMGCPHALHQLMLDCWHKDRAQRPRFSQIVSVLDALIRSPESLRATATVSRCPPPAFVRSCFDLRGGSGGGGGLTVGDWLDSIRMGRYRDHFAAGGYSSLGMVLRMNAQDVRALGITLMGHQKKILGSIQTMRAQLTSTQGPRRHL
The following applies: EPHA8, 10 µM; read-out: score (%).

Assay [5] concerns the target T5, KinomeScan kinase panel (Homo sapiens, UniProt P21709).
T5 construct: purchased DiscoveRx (KinomeScan)
T5 sequence (P21709 26-976): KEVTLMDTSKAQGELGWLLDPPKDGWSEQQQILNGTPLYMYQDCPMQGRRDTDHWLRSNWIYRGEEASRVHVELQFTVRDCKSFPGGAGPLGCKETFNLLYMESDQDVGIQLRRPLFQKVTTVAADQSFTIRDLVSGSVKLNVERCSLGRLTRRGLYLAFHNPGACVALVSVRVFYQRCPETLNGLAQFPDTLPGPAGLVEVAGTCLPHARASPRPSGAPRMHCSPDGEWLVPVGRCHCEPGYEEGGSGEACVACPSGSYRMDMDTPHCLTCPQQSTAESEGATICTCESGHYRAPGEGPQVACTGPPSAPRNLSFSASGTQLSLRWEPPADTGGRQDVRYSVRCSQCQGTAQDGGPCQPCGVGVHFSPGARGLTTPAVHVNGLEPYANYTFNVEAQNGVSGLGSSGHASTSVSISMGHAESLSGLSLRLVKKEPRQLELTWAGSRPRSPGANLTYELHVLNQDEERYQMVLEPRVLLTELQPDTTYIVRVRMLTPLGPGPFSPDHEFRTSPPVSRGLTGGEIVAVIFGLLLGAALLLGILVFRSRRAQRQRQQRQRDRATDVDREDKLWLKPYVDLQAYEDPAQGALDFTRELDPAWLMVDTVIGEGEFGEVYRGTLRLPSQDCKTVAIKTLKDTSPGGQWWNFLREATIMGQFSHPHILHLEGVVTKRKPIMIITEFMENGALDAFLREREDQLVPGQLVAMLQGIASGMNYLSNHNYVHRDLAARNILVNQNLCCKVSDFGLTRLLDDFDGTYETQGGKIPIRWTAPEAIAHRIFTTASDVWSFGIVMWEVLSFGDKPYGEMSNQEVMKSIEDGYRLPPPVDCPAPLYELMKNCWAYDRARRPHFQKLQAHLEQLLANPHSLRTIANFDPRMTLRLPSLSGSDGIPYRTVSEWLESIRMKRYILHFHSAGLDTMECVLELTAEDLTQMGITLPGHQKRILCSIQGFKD
The following applies: EPHA1, 10 µM; read-out: score (%).

In assay [6] the target is T6, KinomeScan kinase panel (Homo sapiens, UniProt P10721, V559D).
T6 construct: purchased DiscoveRx (KinomeScan)
Particulars: KIT(V559D), 10 µM; read-out: score (%).

The target in assay [7] is T7, KinomeScan kinase panel (Homo sapiens, UniProt P51813).
T7 construct: purchased DiscoveRx (KinomeScan)
T7 sequence (P51813 1-675): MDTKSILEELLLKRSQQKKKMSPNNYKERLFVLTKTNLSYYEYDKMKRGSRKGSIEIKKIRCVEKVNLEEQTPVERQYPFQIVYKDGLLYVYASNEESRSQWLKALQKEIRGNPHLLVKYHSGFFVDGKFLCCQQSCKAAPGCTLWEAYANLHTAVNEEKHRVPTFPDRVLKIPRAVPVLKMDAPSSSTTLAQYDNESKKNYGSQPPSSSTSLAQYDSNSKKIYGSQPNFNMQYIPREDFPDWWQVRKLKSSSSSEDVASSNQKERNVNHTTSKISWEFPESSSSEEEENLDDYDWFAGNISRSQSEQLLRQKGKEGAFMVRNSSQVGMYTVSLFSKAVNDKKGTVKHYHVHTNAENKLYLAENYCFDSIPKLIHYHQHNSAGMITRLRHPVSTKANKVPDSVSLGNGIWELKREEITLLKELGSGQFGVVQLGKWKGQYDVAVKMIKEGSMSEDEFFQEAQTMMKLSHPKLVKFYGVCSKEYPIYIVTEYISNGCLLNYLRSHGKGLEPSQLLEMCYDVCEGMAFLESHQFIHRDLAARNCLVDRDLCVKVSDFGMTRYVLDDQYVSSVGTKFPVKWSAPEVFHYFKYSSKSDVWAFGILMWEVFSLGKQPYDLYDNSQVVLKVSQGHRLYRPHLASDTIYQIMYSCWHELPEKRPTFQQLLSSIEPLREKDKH
The following applies: BMX, 10 µM; read-out: score (%).

T1 sequence (P12931 whole entry): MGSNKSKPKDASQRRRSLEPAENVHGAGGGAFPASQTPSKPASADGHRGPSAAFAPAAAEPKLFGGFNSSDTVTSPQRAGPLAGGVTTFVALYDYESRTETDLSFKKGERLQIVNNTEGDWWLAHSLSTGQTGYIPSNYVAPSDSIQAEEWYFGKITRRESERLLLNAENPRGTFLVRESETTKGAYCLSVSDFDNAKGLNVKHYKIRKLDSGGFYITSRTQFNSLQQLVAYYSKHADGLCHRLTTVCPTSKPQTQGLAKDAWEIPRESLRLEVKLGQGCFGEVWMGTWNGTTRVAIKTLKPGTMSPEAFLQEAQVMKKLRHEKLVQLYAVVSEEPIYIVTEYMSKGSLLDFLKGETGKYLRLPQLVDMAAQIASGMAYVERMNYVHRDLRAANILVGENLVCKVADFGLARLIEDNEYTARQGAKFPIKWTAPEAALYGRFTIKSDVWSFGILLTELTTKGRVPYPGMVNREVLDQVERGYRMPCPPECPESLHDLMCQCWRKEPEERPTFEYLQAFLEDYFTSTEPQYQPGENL
T6 sequence (P10721 26-976 V559D): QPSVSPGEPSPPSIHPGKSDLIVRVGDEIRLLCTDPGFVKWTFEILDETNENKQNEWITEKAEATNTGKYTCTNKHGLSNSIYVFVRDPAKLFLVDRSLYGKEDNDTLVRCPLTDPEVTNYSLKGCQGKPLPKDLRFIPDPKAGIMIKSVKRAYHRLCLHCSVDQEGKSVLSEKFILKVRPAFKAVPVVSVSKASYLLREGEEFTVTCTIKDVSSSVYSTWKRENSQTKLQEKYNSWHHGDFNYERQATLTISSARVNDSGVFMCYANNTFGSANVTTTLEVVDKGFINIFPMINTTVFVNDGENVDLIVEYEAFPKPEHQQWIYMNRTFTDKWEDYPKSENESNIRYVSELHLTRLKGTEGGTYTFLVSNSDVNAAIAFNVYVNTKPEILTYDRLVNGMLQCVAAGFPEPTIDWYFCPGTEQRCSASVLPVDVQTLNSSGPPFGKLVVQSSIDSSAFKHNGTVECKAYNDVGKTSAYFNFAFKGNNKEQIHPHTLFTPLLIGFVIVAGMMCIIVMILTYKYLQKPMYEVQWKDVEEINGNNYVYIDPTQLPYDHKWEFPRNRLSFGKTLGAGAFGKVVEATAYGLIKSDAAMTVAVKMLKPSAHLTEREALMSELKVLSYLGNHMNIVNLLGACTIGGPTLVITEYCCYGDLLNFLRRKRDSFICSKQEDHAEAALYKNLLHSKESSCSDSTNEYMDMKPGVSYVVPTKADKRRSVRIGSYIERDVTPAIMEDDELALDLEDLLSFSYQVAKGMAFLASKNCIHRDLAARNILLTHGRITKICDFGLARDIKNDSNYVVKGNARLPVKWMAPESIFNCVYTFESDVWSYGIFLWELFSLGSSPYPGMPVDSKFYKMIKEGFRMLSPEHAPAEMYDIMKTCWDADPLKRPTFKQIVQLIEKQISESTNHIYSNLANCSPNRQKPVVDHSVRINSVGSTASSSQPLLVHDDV
T3 sequence (Q16816 whole entry): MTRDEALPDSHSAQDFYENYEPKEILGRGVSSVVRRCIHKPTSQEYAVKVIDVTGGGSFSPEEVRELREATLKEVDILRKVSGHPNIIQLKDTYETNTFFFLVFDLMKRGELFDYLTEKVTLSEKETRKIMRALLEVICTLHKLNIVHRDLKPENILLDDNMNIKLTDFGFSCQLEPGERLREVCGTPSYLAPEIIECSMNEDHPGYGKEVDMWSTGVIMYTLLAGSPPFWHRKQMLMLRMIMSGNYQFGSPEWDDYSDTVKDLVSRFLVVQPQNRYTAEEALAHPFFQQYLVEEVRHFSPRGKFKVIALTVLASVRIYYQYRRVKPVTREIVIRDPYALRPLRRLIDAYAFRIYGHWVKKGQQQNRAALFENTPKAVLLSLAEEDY
T2 sequence (Q9NQU5 whole entry): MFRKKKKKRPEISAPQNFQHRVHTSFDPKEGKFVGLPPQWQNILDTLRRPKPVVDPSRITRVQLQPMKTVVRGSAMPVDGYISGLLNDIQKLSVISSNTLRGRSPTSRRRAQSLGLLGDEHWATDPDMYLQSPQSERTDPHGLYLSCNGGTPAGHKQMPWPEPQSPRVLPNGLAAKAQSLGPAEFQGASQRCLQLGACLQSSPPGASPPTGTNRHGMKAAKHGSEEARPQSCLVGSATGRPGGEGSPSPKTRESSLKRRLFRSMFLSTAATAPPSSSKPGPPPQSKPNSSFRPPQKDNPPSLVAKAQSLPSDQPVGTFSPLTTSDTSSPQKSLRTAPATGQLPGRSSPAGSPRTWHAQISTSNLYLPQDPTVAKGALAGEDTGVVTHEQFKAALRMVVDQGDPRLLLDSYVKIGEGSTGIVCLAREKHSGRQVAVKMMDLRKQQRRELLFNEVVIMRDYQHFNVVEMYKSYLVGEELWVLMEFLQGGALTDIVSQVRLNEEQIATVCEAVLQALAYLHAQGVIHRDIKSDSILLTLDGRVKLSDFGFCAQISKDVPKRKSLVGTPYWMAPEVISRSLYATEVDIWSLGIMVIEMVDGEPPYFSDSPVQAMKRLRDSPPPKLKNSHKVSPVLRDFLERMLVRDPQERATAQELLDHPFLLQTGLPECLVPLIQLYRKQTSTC

For `CCN1CCN(Cc2ccc(NC(=O)c3ccc(C)c(NC(=O)c4cncc(-c5cccs5)c4)c3)cc2C(F)(F)F)CC1` [ALW-II-41-27], the remaining binding at 10 µM in assay [1] (kinase SRC) is 0.1%; in assay [2] it was above 30%; in assay [3] it was above 30%; in assay [4] it was 0.1%; in assay [5], 3.8%; in assay [6] it was 0.1%. Besides, in assay [7], the remaining binding at 10 µM turned out to be 11%.

On to `CCN1CCN(Cc2ccc(NC(=O)c3ccc(C)c(/C=C/c4cnc5[nH]ccc5c4Cl)c3)cc2C(F)(F)F)CC1` [HG-6-63-01, (E)-3-(2-(4-chloro-1H-pyrrolo[2,3-b]pyridin-5-yl)vinyl)-N-(4-((4-ethylpiperazin-1-yl)methyl)-3-(trifluoromethyl)phenyl)-4-methylbenzamide], for which the remaining binding at 10 µM in assay [1] (SRC) was 0.25%; in assay [2], above 30%; in assay [3], above 30%; in assay [4], 0.1%; in assay [5], 5.5%; in assay [6], 0%. In assay [7], the remaining binding at 10 µM turned out to be 1.6%.

Consider `CCN1CCN(Cc2ccc(NC(=O)c3ccc(C)c(C#Cc4cccnc4)c3)cc2C(F)(F)F)CC1` [XMD15-44], for which the remaining binding at 10 µM in assay [1] (kinase SRC) is 0%; in assay [2], 100%; in assay [3] it was 88%; in assay [4], 0%; in assay [5] it was 1.2%; in assay [6], 0%. Also, the remaining binding at 10 µM in assay [7] turned out to be 2.7%.
